Experimental data from patent US20260069694A1, “IDENTIFICATION OF HIGHLY IMMUNOSUPRESIVE TREG POPULATION IN TUMOR MICROENVIRONMENTS” (THE TRUSTEES OF COLUMBIA UNIVERSITY IN THE CITY OF NEW YORK, priority 2023, published 2026).

How the values were obtained:
naïve CD4+ T cells = test: iTreg induction from naive CD4+ T cells with TGF-βR1 inhibitor; assay type: cell-based, mouse
Procedure: (§1) Naïve CD4^+ T cells and nTregs were isolated from the spleen of healthy C57B6129SF1/J mice by magnetic separation using a mouse CD4+ T cell isolation kit and PE-conjugated anti-mouse CD25 with anti-PE magnetic separation micro beads (Miltenyi Biotec™). The isolated T cells were stimulated with anti-CD3/CD28 beads (×25 dilution; Miltenyi Biotec™) in the presence or absence of recombinant mouse TGF-β1 (5 ng/ml; Bio-Techne™ Corporation) for 3 days. iRGD (100 μM) or iRGE (100 μM) peptide was added to the cultures in some experiments. To study the effect of TGF-β1 on the induction of αvβ5 integrin+ iTregs, naïve CD4+ T cells were cultured with anti-CD3/CD28 beads (x 25 dilution) and TGF-β1 (5 ng/ml) in the presence or absence of varying concentrations of a TGF-βR1 inhibitor (LY2157299; Selleck™ Chemicals LLC). To study the effect of TCR stimulation on the induction of αvβ5 integrin+ iTregs, naïve CD4+ T cells treated with varying concentrations of plate-coated anti-mouse CD3 Ab (eBioscience™) in the presence of soluble anti-mouse CD28 Ab (2 μg/ml) (eBioscience™) and TGF-β1 (5 ng/ml). The cells were subjected to flow cytometry as described elsewhere.
Naive CD4+ T cells isolated from healthy mice were expanded in the presence of anti-CD3/CD28 Abs, exogenous TGF-β1, and increasing doses of a TGF-βR1 inhibitor (LY2157299). […] The bar diagram of FIG. 25B summarizes the results from 3 independent experiments. The statistical analysis used was one-way ANOVA; p<0.0001 (0 vs 1), p<0.0001 (1 vs 3), p=0.0154 (3 vs 10).
The bar diagram of FIG. 26B summarizes the results from 3 independent experiments. The statistical analysis used was one-way ANOVA; p=0.3996 (αvβ5, 0 vs 1), p=0.5868 (αvβ5, 0 vs 3), p=0.2265 (NRP-1, 0 vs 1), p=0.5751 (NRP-1, 0 vs 3). The error bars indicate the mean±standard error; *p<0.05; ****p<0.0001; N.S., not significant.

[1] = test system: naïve CD4+ T cells / CD4+CD25+Foxp3+ iTregs; test: iTreg induction from naive CD4+ T cells in the absence or presence of iRGD or iRGE; assay type: cell-based, mouse
Procedure: as §1
For the data presented in FIG. 31, FIG. 32A, and FIG. 32B, naïve CD4+ T cells were stimulated with anti-CD3/CD28 Abs and TGF-β1 in the absence or presence of iRGD or iRGE. Flow cytometry was performed to quantify the proportion of CD4+CD25+Foxp3+ iTregs (see FIG. 31) and αvβ5 integrin+ cells among the iTregs (See FIG. 32A). Apoptosis of αvβ5 integrin+ iTregs was quantitated by measuring cleaved caspase 3 using flow cytometry (see FIG. 32B; n=3).
To investigate whether iRGD Reduces CD4+CD25+Foxp3+ iTregs in an RGD-Dependent Manner in Vitro, naïve CD4+ T cells were stimulated with anti-CD3/CD28 Abs and TGF-β1 in the absence or presence of the iRGD or iRGE peptide. The resulting cells were subjected to flow cytometry to analyze the expression of CD25 and Foxp3 in the CD4+ T cells (FIG. 33A) and the expression of the αvβ5 integrin and NRP-1 on CD4+CD25+Foxp3+ iTregs (FIG. 33B). The bar diagram in (FIG. 33C) summarizes the proportion of NRP-1+ cells among the iTregs. The statistical analysis used was the one-way ANOVA; p=0.8221. n=3 per group.
The proportion of apoptotic αvβ5 integrin+ iTregs (FIG. 34) and CD4+Foxp3neg T cells (FIG. 35) was quantitated by measuring cleaved caspase 3 using flow cytometry. The statistical analysis used was Welch's t test; p=0.0705 (n=3). The dot plots and histograms of FIG. 33C and FIG. 35 show representative data from the 3 independent experiments. The error bars indicate the mean±standard error; N.S., not significant.

[2] = peptide 100 μM, anti-CD3/CD28 Abs and TGF-β1

Molecule	proportion of the NRP-1-positive iTregs (naïve CD4+ T cells; among iTregs)	proportion of the αvβ5-positive iTregs (naïve CD4+ T cells; among iTregs)	development of iTregs (CD4+Foxp3+ T cells) from naïve CD4+ T cells (naïve CD4+ T cells; anti-CD3/CD28 Abs, exogenous TGF-β1, increasing doses of inhibitor)	apoptosis of CD4+Foxp3neg T cells (cleaved caspase 3) ([1]; flow cytometry)	proportion of CD4+CD25+Foxp3+ iTregs [1, 2]	αvβ5 integrin-positive population among the iTregs [1, 2]
Cc1cccc(-c2nn3c(c2-c2ccnc4ccc(C(N)=O)cc24)CCC3)n1 [LY2157299]	did not affect	did not affect	suppressed the development of iTregs from naïve CD4+ T cells in a dose-dependent manner			
CRGEKGPDC [iRGE, an iRGD variant that lacks the RGD motif, reference compound]				Neither iRGD nor iRGE increased the apoptosis	ineffective	ineffective
